Experimental data taken from article PMC11881906, “Development of xanthone derivatives as effective broad-spectrum antimicrobials: Disrupting cell wall and inhibiting DNA synthesis” (Science Advances, 2025).

What was measured:
S. aureus ATCC 29213 [1] = assay: Serial passage resistance induction; format: cell-based, Staphylococcus aureus; settings: 20-day passages at 0.5× MIC
Procedure: The bacteria were grown in a medium containing 0.5× MIC of each compound to prepare the bacterial suspension for the next MIC determination. The MICs were then recorded after incubation at 37°C for 24 hours. Daily passages were continued until the initial MIC increased by more than fourfold. The stability of acquired resistance was investigated by MIC determination and repeated for 20 days.

S. aureus ATCC 29213 [2] = assay: DiSC3(5) membrane depolarization assay; format: cell-based, Staphylococcus aureus; settings: 1× to 8× MIC
Procedure: (§1) The DiSC3(5) assay was carried out to investigate the cytoplasmic membrane depolarization. Mid-log phase bacteria culture was centrifuged and resuspended in sterile Hepes buffer [5 mM (pH 7.4)] to adjust the concentration of bacterial cells to obtain OD600 of 0.1. The bacterial suspension was then incubated with 2 μM DiSC3(5) for 1 hour without being exposed to the light. The change in fluorescence intensity was monitored by a BioTek multidetector microplate reader with an excitation wavelength of 622 nm and an emission wavelength of 670 nm. […] All measurements were repeated three times with duplicates each time.

E. coli ATCC 25922 [3] = assay: DiSC3(5) membrane depolarization assay; format: cell-based, Escherichia coli; settings: 1× to 8× MIC
Procedure: as §1

LTA = assay: Fluorescence-based binding assay; settings: compound 1× MIC; LTA 0 to 2.5 μg/ml
Procedure: Changes in the fluorescence emission spectrum or intensity were assessed for compound XT17 with and without the presence of targeted proteins. The fluorescent properties of compound XT17 (excitation wavelength of 350 nm and emission wavelength of 440 nm) were measured using a fluorescent plate reader upon binding to the targets. LTA-targeted protein concentrations ranged from 0.2 to 6.25 μg/ml, while LPS concentrations ranged from 0.78 to 25 μg/ml. The changes in the emission from a constant concentration of fluorescent compound were monitored after adding increasing concentrations of LTA or LPS. All measurements were repeated three times with duplicates each time.

E. coli ATCC 25922 [4] = assay: RNA-seq transcriptome response; format: cell-based, Escherichia coli; settings: 4× MIC, 2 hours
Procedure: After exposure, 1-ml aliquots of cells were immediately pelleted at 4°C by centrifugation for 2 min at 2000 rpm. The supernatants were removed and immediately frozen in liquid nitrogen. The samples were stored at −80°C for later total RNA isolation. Total RNA was extracted using the bacterial RNA kit (Omega Bio-Tek, USA) according to the manufacturer’s instructions. The RNA integrity number values were obtained to assess RNA quality using an Agilent Genomics 2200 Tape Station instrument.
A total amount of 2 to 5 ng of the RNA per sample was executed as the input material to construct each cDNA library for RNA-seq using the NEBNext Ultra Directional RNA Library prep kit from Illumina. The quality of the resulting libraries was checked using Agilent High Sensitivity DNA chips to ensure proper library size distribution and the absence of small adapters.
Read mapping was aligned using Bowtie2 ([74]). HTSeq v0.6.1 was used for quantification of expression levels ([75]). DESeq2 on the R package (v1.12.4) was used to calculate DEGs. Differential expression was computed using edgeR: exactTest for each treatment versus the untreated control ([76]). The E. coli database used for mapping was GCF_017357505.1_ASM1735750v1_genomic.fna. Both the GO and KEGG (KEGG Ortholog database) enrichment analyses were done with the Fisher’s exact test. All P values were adjusted with the Benjamini-Hochberg procedure to generate false discovery rates (adjusted P values). GO enrichment analysis was carried out using the clusterProfiler package on the R platform ([77]). KEGG pathway mapping and figure generation were performed with the PathView website ([78]). COG of protein databases were searched with an E value of 1e^-5. For hierarchal clustering analysis of gene expression, the gene expression levels were normalized to z scores of log10 (FPKM + 1), where FPKM is fragments per kilobase per million. For hierarchal clustering analysis of the regulation of transcription factors, the unweighted pair group method with arithmetic mean (UPGMA) method was used as the clustering method. […] Volcano plots were generated by plot_volcano from soothsayer (https://github.com/jolespin/soothsayer) in Python v.3.6.6. Directed networks were constructed and plotted using NetworkX and Matplotlib Python packages, respectively. Hierarchical clustering analysis and heatmap calculation were performed with the pheatmap package on the R platform. The umap package on the R platform was used for uniform manifold approximation and projection (UMAP) analysis of FPKM vectors of each transcriptome. The figures were created via the ggplot2 package ([79]).

E. coli DNA = assay: Electrophoretic mobility shift assay; format: binding, Escherichia coli; settings: 8× MIC
Procedure: Isolation of DNA from pure culture of E. coli ATCC 25922 was carried out by the TIANamp bacterial DNA kit (TIANGEN, China) according to the manufacturer’s instructions. […] A loading buffer containing 10 mM TE (pH 7.5), 0.03% bromophenol blue, 0.03% xylene cyanol FF, 60% glycerol, and 60 mM EDTA was added in the sample following incubation for 30 min at 37°C. The electrophoresis was then performed at 100 V for 2 hours in 1× tris-acetate-EDTA buffer solution [0.04 M tris-acetate (pH 8.0) and 0.001 M EDTA] using a 1% (w/v) agarose gel. The bands were visualized using the ChemiDoc imaging system with ultraviolet light. All of the experiments were repeated at least twice with duplicates each time.

[5] = In vivo corneal toxicity, fluorescein staining; design: species or system mice; settings: topical application to murine cornea
Procedure: In addition, the in vivo toxicity assessment of compound XT17 toward murine cornea was conducted through local application using 1% fluorescein sodium solution to stain the cornea.

## CC(C)=CCOc1cc(OCCCNC(=N)N)cc2oc3cc(OCCCNC(=N)N)ccc3c(=O)c12 [XT17]
S. aureus ATCC 29213 [1]
  increase in MIC values during passages: no more than fourfold increase
S. aureus ATCC 29213 [2]
  DiSC3(5) fluorescence intensity (membrane depolarization): no changes in fluorescence intensity
E. coli ATCC 25922 [3]
  DiSC3(5) fluorescence intensity (membrane depolarization): no changes in fluorescence intensity
LTA
  fluorescence emission of compound upon binding to LTA: decreased in a concentration-dependent manner
E. coli ATCC 25922 [4]
  genes expressed: 4617 genes
E. coli ATCC 25922 [4]; vs untreated
  Log2FC clbN (colibactin non-ribosomal peptide synthetase ClbN): -2.7305
  Log2FC cspE (transcription antiterminator/RNA stability regulator CspE): -4.5456
  Log2FC dnaE (DNA polymerase III subunit alpha): 2.4033
  Log2FC dnaN (DNA polymerase III subunit beta): 2.4370
  Log2FC dnaQ (DNA polymerase III subunit epsilon): 2.6769
  Log2FC dnaT (primosomal protein DnaT): 1.8873
  Log2FC dnaX (DNA polymerase III subunit gamma/tau): 1.3272
  Log2FC gyrA (DNA topoisomerase (ATP-hydrolyzing) subunit A): 2.7733
  Log2FC gyrB (DNA topoisomerase (ATP-hydrolyzing) subunit B): 2.8529
  Log2FC holB (DNA polymerase III subunit delta'): 3.5242
  Log2FC holC (DNA polymerase III subunit chi): 1.8432
  Log2FC holD (DNA polymerase III subunit psi): 2.6144
  Log2FC parC (DNA topoisomerase IV subunit A): 2.5193
  Log2FC parE (DNA topoisomerase IV subunit B): 2.3205
  Log2FC priA (primosomal protein N'): 3.3285
  Log2FC priB (primosomal replication protein N): 5.8981
  Log2FC priC (primosomal replication protein N''): 2.6334
  Log2FC recA (recombinase RecA): 5.7854
  Log2FC recB (exodeoxyribonuclease V subunit beta): 2.0328
  Log2FC recC (exodeoxyribonuclease V subunit gamma): 2.4556
  Log2FC recF (DNA replication/repair protein RecF): 1.6106
  Log2FC recG (ATP-dependent DNA helicase RecG): 1.6673
  Log2FC recJ (single-stranded-DNA-specific exonuclease RecJ): 4.2947
  Log2FC recO (DNA repair protein RecO): 2.8669
  Log2FC recR (recombination mediator RecR): 2.2758
  Log2FC ruvA (Holliday junction branch migration protein RuvA): 3.9191
  Log2FC ruvB (Holliday junction branch migration DNA helicase RuvB): 4.1938
  Log2FC ruvC (crossover junction endodeoxyribonuclease RuvC): 2.7878
  Log2FC ssb1 (single-stranded DNA-binding protein SSB1): 3.2652
  down-regulated genes: 348 genes
  up-regulated genes: 2885 genes
E. coli ATCC 25922 [4]; vs untreated, P < 0.05, absolute log2 fold change > 1
  differentially expressed genes: 3233 genes
E. coli DNA
  interaction with E. coli DNA (gel mobility shift): able to directly interact with the E. coli DNA
[5]
  corneal damage (slit-lamp, fluorescein staining): no notable signs of corneal damage
